Reference: article PMC4176481, “Influence of D-glutamine and D-glutamic acid sequences in optical peptide probes targeted against the cholecystokinin-2/gastrin-receptor on binding affinity, specificity and pharmacokinetic properties” (EJNMMI Research, 2013)
“And” between values parts separate entries of the source, which are not always exact repeats. Identical values can stand only once. “Also recorded” adds a separate entry of the source. Non-standard residues stand in square brackets, D forms with d. Residues, ends and D or L forms follow the SMILES beside them. *: point of attachment. X1 = CC(C)(C)c1cc(C=CC=CC=C2N(CCCS(=O)(=O)O)c3ccc(S(=O)(=O)O)cc3C2(C)CCCC(=O)*)c2cc3c(cc2[o+]1)N(CCCS(=O)(=O)O)C(C)(C)C=C3CS(=O)(=O)[O-]

Legend:
A431/WT tumours = test: In vivo NIRF imaging of CCK2R-negative xenografts; design: species or system athymic nude mice; settings: 1 to 8 h p.i.; i.v. 108 nmol/kg QE or 54 nmol/kg bivQ; n = 5
Source text: Female athymic nude mice (Hsd:Athymic Nude-Foxn1^nu nu/nu; Harlan Laboratories, Eystrup, Germany) were housed under standard conditions with water and food ad libitum. Mice were maintained under a low-pheophorbide diet (C 1039; Altromin, Lage, Germany) to reduce tissue autofluorescence. All procedures were approved by the regional animal committee (reg. number 02-007/10) and were in accordance with international guidelines on the ethical use of animals. Animals were anesthetized with 2% isoflurane during all procedures. […]
Xenografts were inoculated in athymic nude mice (Hsd:Athymic Nude-Foxn1^nu nu/nu; Harlan Laboratories) 10 to 15 days before imaging by subcutaneous injection of 0.5 million A431/CCK2R (left flank) and A431/WT cells (right flank) dispersed in Matrigel™ (BD Biosciences). For in vivo fluorescence imaging, 108 nmol/kg QE or 54 nmol/kg bivQ probe was injected intravenously (i.v.), according to the results of a dose determination experiment, which was set up to identify the optimal relation between sensitivity and contrast (Additional file 1). […] Another group received 108 nmol/kg of the unconjugated fluorophore DY-754 to determine dye-mediated non-specific tumour uptake, and one group remained untreated to control for probe-unrelated NIR fluorescence in the animals. […]

A431/CCK2R cells = test: Target binding and internalization in vitro, fluorescence microscopy; format: cell-based, human; settings: 0.5 μM, 30 min
Method: (§1) Binding of the optical probes QE and bivQ to CCK2R-expressing (A431/CCK2R) and CCK2R-non-expressing (A431/WT) cells was investigated after incubation with 0.5 μM of each probe in culture medium for 30 min at 4°C to observe active surface receptor binding and at 37°C to check for internalization behaviour, which is mandatory for in vivo signal amplification. Incubation with 0.5 μM of the fluorochrome DY-754 should determine the role of the interaction of the peptide with the CCK2R for probe uptake. Probe incubation was followed by cell membrane staining with wheat germ agglutinin-Alexa Fluor®-555 (WGA-555, Invitrogen, Carlsbad, CA, USA), fixation in 4% (v/v) paraformaldehyde on ice and mounting in PermaFluor® Mounting medium (Thermo Fisher, Waltham, MA, USA), containing 0.2 μg/mL Hoechst 33258 (Applichem, Darmstadt, Germany) to stain cell nuclei. Fluorescence microscopy was carried out with the digital microscope EVOSfl (AMG, Bothell, WA, USA) equipped with three filter cubes for visualization of Hoechst (excitation 335 to 379 nm, emission 417 to 477 nm), WGA-555 (excitation 511 to 551 nm, emission 573 to 613 nm) and DY-754 (excitation 690 to 730 nm, emission 752 to 798 nm).

A431/WT cells = test: Target binding in vitro, fluorescence microscopy, CCK2R-non-expressing cells; format: cell-based, human; settings: 0.5 μM, 30 min
Method: as §1

[1] = Metabolic (protease) stability in mouse liver homogenates; format: in vitro ADME; settings: mouse liver homogenate, incubation up to 180 min, HPLC with UV/VIS detection at 750 nm, three parallels
Method: Supplementary file 2191-219X-3-75-S3.pptx: Additional file 3: Metabolic (protease) stability of QE and bivQ against the degradation by mouse liver homogenates. The HPLC peak of non-degraded QE at 9.7 min elution time (a-I) decreased after 180 min of probe incubation in liver homogenate, whereas a second peak, representing degradation products, appeared at 7.2 min of elution (a-II). Degradation curves of (b) QE and (c) bivQ. […] Peaks were detected at 750 nm with a UV/VIS detector. Data represent three parallels. Click here for file
Supplementary file 2191-219X-3-75-S4.pptx: Additional file 4: Metabolic stability of the optical CCK2R targeted minigastrin dQ-MG-754 [[20]]. Degradation of dQ-MG-754 for comparison with QE and bivQ. […] Probe signal was detected at 750 nm with a UV/VIS detector. Data represent three parallels. Click here for file

A431/CCK2R tumours = test: In vivo NIRF imaging of CCK2R-expressing xenografts; design: species or system athymic nude mice
Source text: Female athymic nude mice (Hsd:Athymic Nude-Foxn1^nu nu/nu; Harlan Laboratories, Eystrup, Germany) were housed under standard conditions with water and food ad libitum. Mice were maintained under a low-pheophorbide diet (C 1039; Altromin, Lage, Germany) to reduce tissue autofluorescence. All procedures were approved by the regional animal committee (reg. number 02-007/10) and were in accordance with international guidelines on the ethical use of animals. Animals were anesthetized with 2% isoflurane during all procedures. To implement subcutaneous xenografts, 5 × 10^5 CCK2R transfected (A431/CCK2R) and non-transfected wild-type cells (A431/WT) were dispensed in Matrigel™ (BD Biosciences, Heidelberg, Germany) and injected into the right (A431/CCK2R cells) and left (A431/WT cells) flank of 8- to 12-week-old animals 10 to 15 days before in vivo imaging.
Xenografts were inoculated in athymic nude mice (Hsd:Athymic Nude-Foxn1^nu nu/nu; Harlan Laboratories) 10 to 15 days before imaging by subcutaneous injection of 0.5 million A431/CCK2R […] and A431/WT cells (right flank) dispersed in Matrigel™ (BD Biosciences). For in vivo fluorescence imaging, 108 nmol/kg QE or 54 nmol/kg bivQ probe was injected intravenously (i.v.), according to the results of a dose determination experiment, which was set up to identify the optimal relation between sensitivity and contrast (Additional file 1). […] Another group received 108 nmol/kg of the unconjugated fluorophore DY-754 to determine dye-mediated non-specific tumour uptake, and one group remained untreated to control for probe-unrelated NIR fluorescence in the animals. At defined time points between 0 and 8 h p.i., NIRF fluorescence images (excitation 615 to 665 nm, emission >750 nm) and white light images of the animals were obtained. By means of spectral unmixing, tissue autofluorescence was removed from the images. Subsequently, fluorescence intensities (FI) were analysed over the time in regions of interest (ROIs) that were placed upon the tumours and non-tumour tissue. As a measure of contrast between tumour and non-tumour fluorescence, tumour/background ratios (TBRs) were calculated as a quotient of FItumour/FInon-tumour.

[2] = tested on: A431/CCK2R and A431/WT tumours; test: Ex vivo intratumoural probe distribution in cryosections (Odyssey scanner); design: species or system athymic nude mice; settings: acetone-fixed 30-μm cryosections of explanted xenografts, three specimens/group
Source text: To determine intratumoural distribution of the peptide probes ex vivo, acetone-fixed 30-μm cryosections of explanted xenografts were scanned mesoscopically in the near-infrared scanner Odyssey® (LI-COR, Bad Homburg, Germany) at 700 nm (autofluorescence) and 800 nm (probe fluorescence).

[3] = Biodistribution, ex vivo NIRF of organs and xenografts 8 h p.i.; format: in vivo, athymic nude mice
Method: We investigated the biodistribution of the optical probes and of the fluorochrome DY-754 to determine the influence of the dye on tumour and organ accumulation. Therefore, 8 h p.i., ex vivo NIRF fluorescence images of the organs and the two xenografts (A431/CCK2R and A431/WT) per mouse were taken in combination with the placement of ROIs on these organs to assess semiquantitative fluorescence intensities.

[4] = target: T1, cholecystokinin-2/gastrin receptor (CCK2R) (Homo sapiens, UniProt P32239); test: saturation binding on A431/CCK2R cells, NIR fluorescence
T1 chain: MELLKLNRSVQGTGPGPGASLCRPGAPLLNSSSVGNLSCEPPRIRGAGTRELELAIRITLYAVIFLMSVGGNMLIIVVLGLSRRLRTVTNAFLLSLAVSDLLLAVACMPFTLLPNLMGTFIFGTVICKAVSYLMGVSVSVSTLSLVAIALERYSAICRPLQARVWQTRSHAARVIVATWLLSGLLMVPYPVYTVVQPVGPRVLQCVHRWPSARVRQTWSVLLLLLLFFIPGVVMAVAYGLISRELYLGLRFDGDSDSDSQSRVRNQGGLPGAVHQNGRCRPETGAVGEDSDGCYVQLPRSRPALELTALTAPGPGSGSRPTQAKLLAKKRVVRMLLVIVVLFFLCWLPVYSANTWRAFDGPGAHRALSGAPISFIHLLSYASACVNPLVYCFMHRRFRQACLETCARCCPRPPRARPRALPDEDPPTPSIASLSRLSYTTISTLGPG

[5] = target: T1, cholecystokinin-2/gastrin receptor …; test: competition with QE probe on cells, NIR fluorescence
[6] = target: T1, cholecystokinin-2/gastrin receptor …; test: competition with bivQ probe on cells, NIR fluorescence

CSCC[C@H](NC(=O)[C@H](Cc1c[nH]c2ccccc12)NC(=O)CNC(=O)[C@H](Cc1ccc(O)cc1)NC(=O)[C@H](C)NC(=O)[C@@H](CCC(=O)O)NC(=O)[C@@H](CCC(N)=O)NC(=O)[C@@H](CCC(=O)O)NC(=O)[C@@H](CCC(N)=O)NC(=O)[C@@H](CCC(=O)O)NC(=O)[C@@H](CCC(N)=O)NC(=O)CCCC1(C)C(=CC=CC=Cc2cc(C(C)(C)C)[o+]c3cc4c(cc23)C(CS(=O)(=O)[O-])=CC(C)(C)N4CCCS(=O)(=O)O)N(CCCS(=O)(=O)O)c2ccc(S(=O)(=O)O)cc21)C(=O)N[C@@H](CC(=O)O)C(=O)N[C@@H](Cc1ccccc1)C(N)=O (stereo partly drawn) [QE] (X1-[dQ][dE][dQ][dE][dQ][dE]AYGWMDF-NH2)
TBR, A431/WT tumours (A431/WT tumours): ~2 and < 2 | probe localisation in A431/CCK2R cells at 4°C (A431/CCK2R cells; 4°C): restricted to the cell membrane | binding and internalization in A431/CCK2R cells at 37°C (A431/CCK2R cells; 37°C, n = 3): binding and internalization | binding to A431/WT cells (no CCK2R expression) (A431/WT cells): no binding | metabolic stability against degradation by liver proteases [1]: more stable than bivQ; also recorded: highly stable | TBR, A431/CCK2R xenografts, under competition (A431/CCK2R tumours; 8 h p.i., co-injection of 10-fold molar excess of non-fluorescent minigastrin, mean ± SD, n = 5): 4.4 ± 0.9 | tumour/background ratio (TBR), A431/CCK2R xenografts (A431/CCK2R tumours; 8 h p.i., i.v. 108 nmol/kg QE or 54 nmol/kg bivQ, mean ± SD, n = 5): 6.2 ± 1.0 | TBR, CCK2R-expressing xenografts (summary bound) (A431/CCK2R tumours; high-contrast imaging, discussion summary): > 6 | intratumoural fluorescence at 800 nm in tumour sections [2]: only in the outer A431/CCK2R tumour regions | fluorescence accumulation in stomach, small intestine and colon ([3]; n = 5): no fluorescence accumulation | uptake in the liver compared to free DY-754 ([3]; n = 5): weakly elevated uptake | uptake into A431/WT tumours (biodistribution) ([3]; n = 5, comparably high for DY-754 (p > 0.05)): weak uptake

B1: QE minigastrin probe (peptide)
chain: {DY‑754}-AYGWMDF-NH2
modifications: also: N-terminal spacer of three alternating D-Gln and three D-Glu, order not given here, M5: Met or Nle
Kd [4]: 5.8 nM

LEEEEEAYGWMDF [HG-13 minigastrin]
IC50 [5]: 16.7 nM | IC50 [6]: 16.6 nM
